The target in one assay is T1, HDAC6 (Mus musculus, UniProt Q9Z2V5).
T1 construct: endogenous in cells; host or cells: mouse immortalized cell line 4935
T1 sequence (Q9Z2V5 1-1149): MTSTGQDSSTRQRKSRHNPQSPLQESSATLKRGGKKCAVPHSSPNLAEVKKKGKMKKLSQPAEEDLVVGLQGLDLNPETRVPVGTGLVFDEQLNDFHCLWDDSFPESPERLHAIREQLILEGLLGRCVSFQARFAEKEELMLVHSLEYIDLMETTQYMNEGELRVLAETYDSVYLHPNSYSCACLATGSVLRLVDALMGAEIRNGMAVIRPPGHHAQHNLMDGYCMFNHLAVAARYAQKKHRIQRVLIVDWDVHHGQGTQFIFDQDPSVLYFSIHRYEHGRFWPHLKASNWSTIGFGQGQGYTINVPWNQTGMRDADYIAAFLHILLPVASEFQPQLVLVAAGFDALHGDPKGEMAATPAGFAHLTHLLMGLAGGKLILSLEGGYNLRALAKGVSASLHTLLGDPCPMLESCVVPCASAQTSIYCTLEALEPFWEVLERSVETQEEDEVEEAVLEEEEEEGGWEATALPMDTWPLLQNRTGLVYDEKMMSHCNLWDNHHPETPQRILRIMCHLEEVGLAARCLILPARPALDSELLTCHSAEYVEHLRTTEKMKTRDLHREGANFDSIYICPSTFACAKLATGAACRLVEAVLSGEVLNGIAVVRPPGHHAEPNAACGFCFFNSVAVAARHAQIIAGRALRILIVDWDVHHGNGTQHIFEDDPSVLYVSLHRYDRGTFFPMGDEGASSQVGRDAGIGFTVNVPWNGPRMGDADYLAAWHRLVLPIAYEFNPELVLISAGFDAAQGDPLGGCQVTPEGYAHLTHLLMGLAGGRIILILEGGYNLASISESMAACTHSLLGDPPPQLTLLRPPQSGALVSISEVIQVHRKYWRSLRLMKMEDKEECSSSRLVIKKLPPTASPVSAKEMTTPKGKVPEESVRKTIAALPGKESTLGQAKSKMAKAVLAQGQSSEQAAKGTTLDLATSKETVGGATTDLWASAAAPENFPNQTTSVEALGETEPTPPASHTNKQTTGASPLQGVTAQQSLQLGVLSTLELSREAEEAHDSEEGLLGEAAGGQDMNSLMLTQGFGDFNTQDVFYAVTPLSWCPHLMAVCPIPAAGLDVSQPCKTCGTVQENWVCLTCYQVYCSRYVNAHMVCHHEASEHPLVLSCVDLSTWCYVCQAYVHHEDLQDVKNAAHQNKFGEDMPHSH
Nature of the assay: In-cell ELISA of HDAC6 in mice immortalized cell line 4935. To be noted: mice immortalized cell line 4935, in-cell ELISA. In kind it is cell-based. As to the method:
FIG. 19 is a dose-response curve for HDAC6 expression as a function of concentration for compounds 2 and 3j from Part 2 of the Example section.
The degradation efficiency of HDAC6 induced by 2 and 3j in mice immortalized cell line 4935 was also tested using western blot and in-cell ELISA. In concentrations ranging from 10 nM to 10 μM, VHL-based degrader 3j induced more HDAC6 degradation and tubulin acetylation than CRBN-based degrader 2 (data not shown). […] The maximal degradation percentage for HDAC6 induced by 3j is 56.8%, which is better than 45.3% of Dmax induced by compound 2. […] The VHL E3 ligase-based degrader 3j may have advantages over CRBN-based degrader 2 in animal studies using mice as the model system.
Background: In an ELISA, binding on a coated surface is turned into a signal by an enzyme label.

The test system of another assay is Caspase-3 and PARP. Nature of the assay: Cleavage of Caspase-3 and PARP in MM1S. In kind it is cell-based, human. To be noted: 48 h treatment, data not shown. As to the method: Single treatment or co-treatment was performed as combined therapy (1 μM) for 72 hours in MM1S cells. […] However, the single treatment of 12d improved about 19% (P=0.0017) and 11% (P=0.0213) growth inhibition comparing with the combination sets of 13+15 (1:1) and pomalidomide+Next-A (1:1), respectively. To further confirm the observed enhancement, the anti-proliferation in response to 12d was studied from 0.3 nM to 3 μM. This single treatment was compared with dual treatment of 13 and 15 to rule out the potential complication derived from cell permeability issue. Degrader 12d lowered the bottom line (minimal proliferation) of curve over 20% although its IC50 was […] consequentially.
When the cells reached 90% confluence, they were harvested and plated 1×10^6 cells per well in 6-well plate. After overnight seeding, the cells were treated with a solution of compounds or vehicle in culture medium. The culture medium was removed after treatment and then washed twice with cold PBS. […] Protein concentration was measured by using the Pierce BCA protein assay (Thermo Fisher Scientific). […] The Immunoblot was generated by ChemiDoc MP Imaging Systems (Bio-Rad) and analyzed by Image J software (only available for download online at https://imagej.net/Downloads). […]

As usually defined, the Dmax is the greatest extent of degradation seen.

Turning to `CCCCN(Cc1ccc(C(=O)NO)cc1)C(=O)Nc1ccc(OCCCCCn2cc(CNc3cccc4c3C(=O)N(C3CCC(=O)NC3=O)C4=O)nn2)cc1` (stereo not drawn) [Compound 2], at HDAC6, the DC50 is approximately 17 nM. Besides, the maximal degradation (Dmax) at HDAC6 (read-out: maximal degradation percentage for HDAC6 (Dmax)) amounted to 45.3%.

On to `CCCCN(Cc1ccc(C(=O)NO)cc1)C(=O)Nc1ccc(OCCCCCn2cc(CNc3cccc4c3C(=O)N(C3CCC(=O)NC3=O)C4=O)nn2)cc1` (stereo not drawn) [Compound 12d, 4-((1-butyl-3-(4-((5-(4-(((2-(2,6-dioxopiperidin-3-yl)-1,3-dioxoisoindolin-4-yl)amino)methyl)-1H-1,2,3-triazol-1-yl)pentyl)oxy)phenyl)ureido)methyl)-N-hydroxybenzamide], for which the “cleavages of Caspase-3 and PARP” value in the assay with Caspase-3 and PARP was “dose-dependent”.

Source of the values: patent US11059815B2, “Synthesis of small molecule histone deacetylase 6 degraders, compounds formed thereby, and pharmaceutical compositions containing them” (Wisconsin Alumni Research Foundation, priority 2018, dated 2021).
